Reference: EP1101492A1, “NOVEL REMEDIES FOR ALLERGIC DISEASES” (FUJI YAKUHIN KOGYO KABUSHIKI KAISHA, priority 1998, dated 2000)
Read-outs that look alike come from different tables or passages of the source.

Columns and labels:
[1] = system: peripheral blood mononuclear cells (PBMC); test: Antibody (IgG, IgM) production by SAC/IL-2-stimulated peripheral blood mononuclear cells; format: cell-based; conditions: Homo sapiens, 144 h, 6 days incubation; for inhibition at 0.1 µM: final concentration 0.1 µM; for inhibition at 1 µM: final concentration 1 µM; for inhibition at 10 µM: final concentration 10 µM
Method: Heparinized peripheral blood derived from a healthy person was diluted 2-fold with phosphate buffered saline (PBS) and applied to density-gradient centrifugation using Ficoll-Paque (Pharmacia Biotech) to give peripheral blood mononuclear cells (PBMC). After isolation, PBMC was rinsed with PBS, and suspended in RPMI-1640 medium (K.K. Nikken Seibutsu Igaku Kenkyujo) containing 10% heat-inactivated fetal calf serum (1 × 10^6 cells/mL), followed by addition of 0.05% Staphylococcus aureus Cowan-I (SAC, CALBIOCHEM) and 10 units/mL interleukin-2 (IL-2, Genzyme) for stimulation, as well as by simultaneous addition of Compound No. 130 (final concentration: 0.1, 1 and 10 µM). The mixtures were incubated on a 96-well microtest plate at 37°C for 6 days in an atmosphere of 95% air and 5% CO2. After incubation, supernatants were collected and quantitatively measured for IgG and IgM levels by an enzyme immunoassay (a sandwich immunoassay method using two antibodies).
IgG assay: A preparation containing 40 µg/mL anti-human IgG antibody (F(ab')2, Cappel) in 50 mM sodium carbonate-sodium bicarbonate buffer (pH 9.6) was added to each well of a 96-well microtest plate (Nunc) at a rate of 100 µL/well. The plates were allowed to stand overnight at 4°C, and then rinsed 3 times with PBS containing 0.05% Tween 20. A 4-fold dilution of BlockAce (Snow Brand Milk Products Co., Ltd.) in PBS was added to the 96-well microtest plates (300 µL/well) which were then allowed to stand overnight at 4°C, followed by rinsing similarly. Next, a culture supernatant was serially diluted with a 4-fold dilution of BlockAce in PBS and a series of dilutions were added at a rate of 100 µL/well to the 96-well microtest plates which were then allowed to stand at 25°C for 1 hour, followed by rinsing similarly. Thereafter, a 2500-fold dilution of peroxidase-labeled mouse anti-human IgG antibody (Zymed) was added at a rate of 100 µL/well to the 96-well microtest plates which were then allowed to stand at 25°C for 1 hour, followed by rinsing similarly. A coloring kit for peroxidase (Sumitomo Bakelite) was added at a rate of 100 µL/well to each well which was subjected to an enzyme reaction for 15 to 30 minutes at room temperature, followed by addition of 1 N hydrochloric acid at a rate of 100 µL/well. The resultant colored product was measured for an optical density (OD) at 450 nm for a test wavelength and at 650 nm for a reference wavelength in a microplate reader. IgG levels are calculated using a calibration curve of a standard IgG.
IgM assay: The procedures for the IgG assay as aforementioned were repeated except that the anti-human IgG antibody (F(ab')2) was replaced to anti-human IgM antibody (F(ab')2, Cappel) and the peroxidase-labeled mouse anti-human IgG antibody also to peroxidase-labeled mouse anti-human IgM antibody (Zymed; 2,000-fold dilution). IgM levels are obtained in the same manner as for the IgG assay.

[2] = system: allergic inflammation models (air pouch models); test: Allergic inflammation model (air pouch model): leukocyte infiltration; format: in vivo, rats; conditions: 10 mg/kg or 30 mg/kg, into the air pouch at the second challenge or systemically 30 minutes prior; exudate 8 hours after second challenge; dexamethasone 0.1 mg/kg as comparison
Method: Compound No. 130 was dissolved in physiological saline to make the final concentration 2.5 mg/mL (equal to 10 mg/kg) or 7.5 mg/mL (equal to 30 mg/kg) and administered into an air pouch of animals or intraperitoneally at a dose of 4 mL/kg. Dexamethasone was also dissolved in physiological saline to make the final concentration 25 µg/mL (equal to 0.1 mg/kg) and administered into an air pouch of animals at a dose of 4 mL/kg. Administration into such an air pouch was conducted simultaneously with the second challenge while the intraperitoneal administration was 30 minutes prior to the second challenge. Acetylated bovine serum albumin diazo-coupled with arsanilic acid (ABA-AcBSA) was prepared according to the Ouchi et al. and Tabachnick et al. methods as disclosed in Ouchi et al., "Seibutsu Yakukagaku Jikken Koza, Ensho To Allergy (Inflammation and Allergy) I-2", pp.194 to 206, Hirokawa Publishing Co., Japan and Tabachnick et al., The Journal of Biological Chemistry, 234: 1726- 1730, 1959, and mixed with a Freund's complete adjuvant (Difco) at an equal ratio. The mixture was treated using a connection-type glass syringe to form an emulsion which was used as a sensitizing solution. […] The retrieved exudates were measured by a dye-exclusion method using a haematocytometer and the number of exudated leukocytes were counted.

[3] = read-out: IgG production of PBMC, percent inhibition
[4] = read-out: IgM production of PBMC, percent inhibition

`CNC(=O)[C@H](Cc1ccc(NC(=N)N)cc1)NC(=O)[C@H](CC(C)C)C(CCCc1ccccc1)C(=O)NO` (single isomer, unassigned) [Compound No. 130, N-[4-(N-Hydroxyamino)-2(R)-isobutyl-3(R or S)-(3-phenyltrimethylene)succinyl)-L-4'-guanidophenylalanine-N-methylamide 1 acetate] was tested. Which inhibition at 0.1 µM [1, 3] did it give?
The inhibition at 0.1 µM was 84.5%.

What about the inhibition at 0.1 µM [1, 4] of the same molecule?
The inhibition at 0.1 µM was 32.9%.

And the inhibition at 1 µM [1, 3]?
Its inhibition at 1 µM is 96.1%.

What about the inhibition at 1 µM [1, 4] of the same molecule?
The inhibition at 1 µM was 68.1%.

And the inhibition at 10 µM [1, 3]?
The inhibition at 10 µM was 96%.

What about the inhibition at 10 µM [1, 4] of the same molecule?
Its inhibition at 10 µM is 63.4%.

And the “infiltration of leukocytes into an air pouch (FIG. 14)” value [2]?
Its value is “significantly inhibited”.
